Data: PubChem BioAssay AID1963597 (National Center for Advancing Translational Sciences (NCATS), 2024)

Each molecule was assayed on human liver microsomes, metabolic stability half-life (assay: NCATS Human Liver Microsomal (HLM) Stability Profiling). Settings: higher = more stable; screened at 1 µM (by protocol).
Method in brief: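 Substrate depletion (in vitro t1/2): 1 µM compound with 0.5 mg/mL microsomes and NADPH regenerating system, phosphate buffer pH 7.4, 37 °C. Sampled at 0, 5, 10, 15, 30, 60 min into cold acetonitrile with albendazole internal standard for MS quantification.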

Row | Structure (SMILES) | half-life
1 | NC(=O)c1cnc(N[C@@H]2CCCC[C@H]2N)nc1Nc1cccc(-n2nccn2)c1 | 90.7 min
2 | COc1cc2nc(=NC(=O)c3cccnc3)n3c(c2cc1OC)NCC3 | 45 min
3 | CCCOC(C(=O)OC1CCN(C)CC1)(c1ccccc1)c1ccccc1 | 11.3 min
4 | O=C(O)Cc1sc(-c2ccccc2)nc1-c1ccc(Cl)cc1 | 2.82 min
5 | CC(C)NC(=O)c1ccc(C=O)cc1 | 3.1 min
6 | CC(C)(C)NC[C@H](O)COc1cccc2c1CCCC2=O | > 120 min
7 | CC(=O)c1ccc(C(=O)N(Cc2cccnc2)c2nc3c(C)c(C)ccc3s2)cc1 | 6.25 min
8 | COc1ccccc1N1CCNCC1 | > 120 min
9 | CN1CCN(C(=O)c2ccc3nccn3c2)CC1 | > 120 min
10 | Cc1ccc(S(=O)(=O)NC(=O)NC2CCCCC2)cc1 | > 120 min
11 | Cc1cc(C)cc(-c2cnc3cc(Cl)c(-c4cccc(O)c4)cc3c2OCCCN)c1 | 25.3 min
12 | CCOC(=O)Cn1cccc1-c1nc(-c2ccc(OC)cc2)c(-c2ccc(OC)cc2)s1 | 0.96 min
13 | Clc1cccc(N2CCNCC2)c1 | 39.8 min
14 | O=C(CC1N=C2c3ccccc3N=C(SCc3ccc(Cl)cc3)N2C1=O)NCCc1ccccc1 (centres undefined) | 4.19 min
15 | CC(C)CCC(=O)CC1c2ccccc2C(=O)N1c1ccc2ccc(Cl)nc2n1 (centres undefined) | 7.76 min
16 | CCOC(=O)c1ccc(O)cc1 | 61 min
17 | C[C@]12CCC(=O)C=C1CC[C@@H]1[C@@H]2CC[C@@]2(C)[C@H]1CC[C@]2(O)C(=O)CO | 62.1 min
18 | CCCCCCCCC=CCCCCCCCC(=O)NCCOC(=O)CC(C(=O)O)S(=O)(=O)O (centres undefined) | > 120 min
19 | CCN(Cc1ccc(Cl)nc1)/C(=C/[N+](=O)[O-])NC | > 120 min
20 | Cc1ccc(C(=O)N2CCc3cc(CNS(=O)(=O)c4cccs4)ccc32)cc1 | 5.17 min
21 | Cn1c(N2CCCCS2(=O)=O)nc(C(=O)NCc2ccc(F)cc2)c(O)c1=O | > 120 min
22 | Cc1ccc(S(=O)(=O)Nc2nc3n(n2)C(c2ccc(F)cc2)C=C(c2ccccc2)N3)cc1 (centres undefined) | > 120 min
23 | CCCCC(CC)CN=C(N)NC(N)=NCCCCCCN=C(N)NC(N)=NCC(CC)CCCC (centres undefined) | > 120 min
24 | OCc1ccccn1 | > 120 min
25 | CN1CCC(Nc2ncc3ncnc(Nc4ccc(F)c(Cl)c4)c3n2)CC1 | 116 min
26 | COc1ccc(-c2oc3ncn4nc(COc5c(C)cccc5C)nc4c3c2-c2ccc(OC)cc2)cc1 | 13.2 min
27 | Cc1ccccc1C(=O)Nc1cccc(-c2nc3cccnc3s2)c1 | 6.57 min

Row | Structure (SMILES) | half-life
28 | CCCSP(=S)(OCC)Oc1ccc(SC)cc1 (centres undefined) | > 120 min
29 | COC(=O)c1ccc2c(C(=Nc3ccc(N(C)C(=O)CN4CCN(C)CC4)cc3)c3ccccc3)c(O)[nH]c2c1 | 49.1 min
30 | Oc1c(Cl)cc(Cl)c2cccnc12 | 25.2 min
31 | CCOCCn1c(C2CCN(CCc3ccc(C(C)(C)C(=O)O)cc3)CC2)nc2ccccc21 | > 120 min
32 | CCCc1ccc(C(=O)O)cc1 | > 120 min
33 | C=Cc1ccc(Cn2c(SCC(=O)N3CCN(c4ccc(F)cc4)CC3)nc3ccccc32)cc1 | 2.42 min
34 | O=C(O)c1ccc2[nH]cc(CCCCN3CC=C(c4ccccc4)CC3)c2c1 | > 120 min
35 | O=C(O)CCCc1ccccc1 | > 120 min
36 | CCOc1ccc(-n2c(C(C)N(Cc3cccnc3)C(=O)Cc3ccc(F)c(C(F)(F)F)c3)nc3ncccc3c2=O)cc1 (centres undefined) | 4.89 min
37 | CC(CC1c2ccccc2CCc2ccccc21)CN(C)C (centres undefined) | 87.7 min
38 | O=C(Nc1ccc(-c2ccnc(Nc3ccc(N4CCOCC4)cc3)n2)cc1)C1CCCN1 (centres undefined) | > 120 min
39 | COc1ccc2c(CNCCc3ccccc3OC)c(C(=O)O)n(Cc3ccc(F)cc3Cl)c2c1 | 1.79 min
40 | CCCCCOc1cc2c(cc1-c1cc(/C=C/C(=O)O)ccc1O)C(C)(C)CCC2(C)C | 10.8 min
41 | NC1=NCC2c3ccccc3Cc3ccccc3N12 (centres undefined) | > 120 min
42 | C[C@@H]1C[C@H]2[C@@H]3CCC4=CC(=O)C=C[C@]4(C)[C@@]3(F)[C@@H](O)C[C@]2(C)[C@H]1C(=O)CO | 57.3 min
43 | CCC(=O)N1CCC(n2nccc2NC(=O)Nc2ccccc2Cl)CC1 | 89.7 min
44 | C=CC(=O)N1CCN(C(=O)CNc2cc(-c3ccccc3Cl)c(Cl)cc2OC)CC1 | 9.86 min
45 | COc1ccc2c3c1O[C@H]1[C@@H](O)C=C[C@H]4[C@@H](C2)N(C)CC[C@@]341 | 112 min
46 | COc1ccc(CCNc2nc(SCc3ccccc3Cl)nc3ccccc23)cc1OC | 7.1 min
47 | CCOC(=O)c1ccc(OCCN2C[C@H](O)[C@@H](O)[C@H](O)[C@H]2CO)cc1 | > 120 min
48 | CC(C)CCn1c(CN2CCN(C(=O)C(C)C)CC2)nc2c1c(=O)n(C)c(=O)n2C | 70.7 min
49 | CC(=O)[C@@]1(O)CC[C@H]2C3CCC4=CC(=O)CC[C@]4(C)C3CC[C@@]21C (some centres undefined) | 9.86 min
50 | C#CCN(C)CCCOc1ccc(Cl)cc1Cl | 3.52 min
51 | COc1cccc(C(=O)Nc2ccc3ncnc(N4CCCCC4)c3c2)c1 | 5.03 min
52 | CN1C(=O)C(Cc2ccc3ccccc3c2)N=C(c2ccc(O)cc2)c2cc(Cl)ccc21 (centres undefined) | > 120 min
53 | ClCCN1CCCC1 | 55.7 min
54 | COc1cc(C)c(Sc2cnc(NC(=O)c3ccc(CNC(C)C(C)C)cc3)s2)cc1C(=O)N1CCN(C(C)=O)CC1 (centres undefined) | 8.06 min

Row | Structure (SMILES) | half-life
55 | CCOc1cc(NC(C)=O)ccc1C(=O)OC | 6.75 min
56 | O=C(O)c1cn(C2CC2)c2cc(Cl)c(F)cc2c1=O | > 120 min
57 | CC(C)NC[C@H](O)c1ccc2ccccc2c1 | 18.8 min
58 | CN(C)CC#CCCC(=O)C(O)(c1ccccc1)C1CCC1 (centres undefined) | 102 min
59 | CCOP(=O)(OCC)Oc1cc(C)nc(C(C)C)n1 | 99.9 min
60 | C1COC(NC(C2CC2)C2CC2)=N1 | > 120 min
61 | Cc1ncc(Cl)cc1NCc1ccc(C(=O)NC(CC2CCCC2)C(=O)NC2CC2)s1 (centres undefined) | 6.13 min
62 | COc1nccc(-c2c(-c3ccc(F)cc3)ncn2C2CCNCC2)n1 | > 120 min
63 | CS(=O)(=O)c1cccc(CNc2nc(Nc3ccc4c(c3)CCC(=O)N4)ncc2C(F)(F)F)c1 | > 120 min
64 | Cc1c(CN2CCN(C(=O)C(C)C)CC2)sc2c(N3CCOCC3)nc(-c3cnc(N)nc3)nc12 | > 120 min
65 | Cc1nnc(C(C)C)n1C1CC2CCC(C1)N2CCC(NC(=O)C1CCC(F)(F)CC1)c1ccccc1 (centres undefined) | > 120 min
66 | COC(=O)/C=C(\C)OP(=O)(OC)OC | 19.9 min
67 | CC1=C(C(=O)Nc2cccc(CN)c2)C(c2ccccc2Cl)N=C(Nc2nc3ccccc3o2)N1 (centres undefined) | > 120 min
68 | COc1cc2c(C(=O)N(C)c3cccc(C(F)(F)F)c3)cn(CC(C)C)c(=O)c2cc1OC | 0.93 min
69 | C=C1CCN([C@H](C)[C@](O)(Cn2cncn2)c2ccc(F)cc2F)CC1 | 10 min
70 | CCOc1ncc(S(=O)(=O)N2CCN(CC)CC2)cc1-c1nc2c(CC)n(CCOC)nc2c(=O)[nH]1 | 76.2 min
71 | COP(N)(=O)SC (centres undefined) | 51.6 min
72 | CC(=O)OCC(=O)[C@@]12OC(C)(C)O[C@@H]1C[C@H]1[C@@H]3C[C@H](F)C4=CC(=O)C=C[C@]4(C)[C@@]3(F)[C@@H](O)C[C@@]12C | 44.3 min
73 | CC(C)(N)c1ccc(-c2nc3ccccc3nc2-c2ccccc2)cc1 | > 120 min
74 | NC(=Nc1ccc(CCNCc2cccc(Cl)c2)cc1)c1cccs1 | > 120 min
75 | CCN1CCN(C(=O)c2ccc3c(c2)N(Cc2cc(C)ccc2C)C(=O)c2ccccc2S3(=O)=O)CC1 | 1.24 min
76 | NCCc1ccc(O)cc1 | > 120 min
77 | Cc1cc(=O)oc2cc(O)ccc12 | 60.6 min
78 | CCOC(=O)C(c1c(O)c2ccccc2oc1=O)c1c(O)c2ccccc2oc1=O | 10.3 min
79 | C[C@@H]1CCC[C@H](C)N1CCCC(O)(c1ccccc1)c1ccccn1 (some centres undefined) | > 120 min
